This is an account of results in patent US5721234A, “Glutamate receptor antagonists: fused cycloalkylouinoxalinediones” (Warner-Lambert Company, priority 1995, dated 1998).

Assay [1] addresses kainate site (non-NMDA receptor). The assay is described as follows: Kainate site (non-NMDA receptor) binding affinity (London and Coyle).
In assay [2] the target is AMPA receptors. Briefly: AMPA receptor binding affinity (Honore et al.).
The target in assay [3] is T1, glycine site of the NMDA receptor (Rattus norvegicus, UniProt P35439).
T1 construct: from tissue
The assay is described as follows: Glycine site of the NMDA receptor binding affinity (Jones et al.).

[4] abbreviates: Table 2, cyclopentyl-fused analogs.
Setting [5] is: Table 1, cyclohexyl-fused analogs.

Counter-ions that a name gives are not always drawn.

For `CN(C(=O)C1Cc2c([N+](=O)[O-])cc3[nH]c(=O)c(=O)[nH]c3c2C1)c1ccccc1` (stereo not shown) [Example 69, 6-Nitro-2,3-dioxo-2,3,4,7,8,9-hexahydro-1H-cyclopenta[f]quinoxaline-8-carboxylic acid methyl-phenyl-amide], the values for the IC50 in assay [1] (setting [4]), in assay [2] (setting [4]) and in assay [3] (setting [4]) were 1.6 µM, 0.42 µM and more than 100 µM, respectively.

Turning to `CN(C(=O)c1ccccc1)C1CCc2c([N+](=O)[O-])cc3[nH]c(=O)c(=O)[nH]c3c2C1` (stereo not shown) [Example 53, N-Methyl-N-(6-nitro-2,3-dioxo-1,2,3,4,7,8,9,10-octahydro-benzo[f]quinoxalin-9-yl)-benzamide], the IC50 worked out at 1.6 µM in assay [1] (setting [5]) and 1.1 µM in assay [2] (setting [5]).

In the case of `O=c1[nH]c2cc(Br)c3c(c2[nH]c1=O)CC(NCc1ccccc1)CC3` (stereo not shown) [Example 19, 9-benzylamino-6-bromo-1,4,7,8,9,10-hexahydro-benzo[f]quinoxaline-2,3-dione], the results for the IC50 in assay [1] (setting [5]), in assay [2] (setting [5]) and in assay [3] (setting [5]) were more than 100 µM, 25 µM and more than 100 µM, respectively.

Regarding `O=C(NC1Cc2c([N+](=O)[O-])cc3[nH]c(=O)c(=O)[nH]c3c2C1)c1ccccn1` (stereo not shown) [Example 62, Pyridine-2-carboxylic acid (6-nitro-2,3-dioxo-2,3,4,7,8,9-hexahydro-1H-cyclopenta[f]quinoxalin-8-yl)-amide], the IC50 in assay [1] (setting [4]) is 1.9 µM; in assay [2] (setting [4]), 0.56 µM; in assay [3] (setting [4]), more than 1 µM.

`O=C(Nc1ccccc1)C1Cc2c([N+](=O)[O-])cc3[nH]c(=O)c(=O)[nH]c3c2C1` (stereo not shown) [Example 80, 6-Nitro-2,3,-dioxo-2,3,4,7,8,9-hexahydro-1H-cyclopenta[f]quinoxaline-8-carboxylic acid phenylamide]: the IC50 stood at 3.9 µM in assay [1] (setting [4]) and 1.6 µM in assay [2] (setting [4]).

With `O=C(NC1Cc2c([N+](=O)[O-])cc3[nH]c(=O)c(=O)[nH]c3c2C1)C1CCNCC1` (stereo not shown) [Example 35, 4-(6-nitro-2,3-dioxo-2,3,4,7,8,9-hexahydro-1H-cyclopenta[f]quinoxalin-8-ylcarbamoyl)piperidine hydrochloride], the IC50 was 0.28 µM in assay [1] (setting [4]), 0.12 µM in assay [2] (setting [4]) and less than 1 µM in assay [3] (setting [4]).

With `O=c1[nH]c2cc(Br)c3c(c2[nH]c1=O)CC(O)CC3` (stereo not shown) [Example 7, 6-bromo-9-hydroxy-1,4,7,8,9,10-hexahydro-benzo[f]quinoxaline-2,3-dione], the IC50 in assay [1] (setting [5]) was 3 µM; in assay [2] (setting [5]) it was 17 µM; in assay [3] (setting [5]) it was 1.5 µM.

Turning to `O=C(Nc1ccccc1)NC1CCc2c([N+](=O)[O-])cc3[nH]c(=O)c(=O)[nH]c3c2C1` (stereo not shown) [Example 42, N-phenyl-N'-(6-nitro-2,3-dioxo-1,2,3,4,7,8,9,10-octahydrobenzo[f]quinoxalin-9-yl)urea], the IC50 in assay [1] (setting [5]) stood at 0.83 µM; in assay [2] (setting [5]), 0.15 µM; in assay [3] (setting [5]), 0.18 µM.

As to `O=c1[nH]c2cc([N+](=O)[O-])c3c(c2[nH]c1=O)CC(N1CCCC1)CC3` (stereo not shown) [Example 86, 6-Nitro-9-pyrrolidin-1-yl-1,4,7,8,9,10-hexahydro-benzo[f]quinoxaline-2,3-dione], the IC50 stood at 3.8 µM in assay [1] (setting [5]) and 2.2 µM in assay [2] (setting [5]).

Take `CC(=O)NC1Cc2c([N+](=O)[O-])c(Br)c3[nH]c(=O)c(=O)[nH]c3c2C1` (stereo not shown) [Example 29, N-(5-bromo-6-nitro-2,3-dioxo-2,3,4,7,8,9-hexahydro-1H-cyclopenta[f]quinoxalin-8-yl)acetamide]: in assay [2] (setting [4]), the IC50 was determined as 5.1 µM.

As to `O=C(O)C1Cc2c([N+](=O)[O-])cc3[nH]c(=O)c(=O)[nH]c3c2C1` (stereo not shown) [Example 78, 6-Nitro-2,3,-dioxo-2,3,4,7,8,9-hexahydro-1H-cyclopenta[f]quinoxaline-8-carboxylic acid], the values for the IC50 in assay [1] (setting [4]), in assay [2] (setting [4]) and in assay [3] (setting [4]) were 1.9 µM, 0.42 µM and 14 µM, respectively.

For `CC(=O)N(C)C1Cc2c([N+](=O)[O-])cc3[nH]c(=O)c(=O)[nH]c3c2C1` (stereo not shown) [Example 105, N-Methyl-N-(6-nitro-2,3,-dioxo-2,3,4,7,8,9-hexahydro-1H-cyclopenta[f]quinoxaline-8-yl)acetamide], the IC50 in assay [1] (setting [4]) and in assay [2] (setting [4]) was 2.2 µM in each case.

With `O=C(NC1Cc2c([N+](=O)[O-])cc3[nH]c(=O)c(=O)[nH]c3c2C1)C1CCCN1` (stereo not shown) [Example 64, Pyrrolidine-2-carboxylic acid (6-nitro-2,3-dioxo-2,3,4,7,8,9-hexahydro-1H-cyclopenta[f]quinoxalin-8-yl)-amide], the IC50 in assay [1] (setting [4]) is 0.86 µM; in assay [2] (setting [4]), 0.64 µM; in assay [3] (setting [4]) it was more than 1 µM.

As for `CN(C)C1Cc2c([N+](=O)[O-])cc3[nH]c(=O)c(=O)[nH]c3c2C1` (stereo not shown) [Example 90, 8-Dimethylamino-6-nitro-4,7,8,9-tetrahydro-1H-cyclopenta[f]quinoxaline-2,3-dione], the values for the IC50 in assay [1] (setting [4]), in assay [2] (setting [4]) and in assay [3] (setting [4]) were 2.6 µM, 0.91 µM and 12 µM, respectively.

Turning to `CN(C(=O)c1ccccc1)C1Cc2c([N+](=O)[O-])cc3[nH]c(=O)c(=O)[nH]c3c2C1` (stereo not shown) [Example 68, N-Methyl-N-(6-nitro-2,3-dioxo-2,3,4,7,8,9-hexahydro-1H-cyclopenta[f]quinoxalin-8-yl)-benzamide], the figures for the IC50 in assay [1] (setting [4]) and in assay [2] (setting [4]) were 1.9 µM and 7.4 µM, respectively.

As for `CNC1CCc2c([N+](=O)[O-])cc3[nH]c(=O)c(=O)[nH]c3c2C1` (stereo not shown) [Example 52, 9-Methylamino-6-nitro-1,4,7,8,9,10-hexahydrobenzo[f]quinoxaline-2,3-dione], the IC50 in assay [1] (setting [5]) was 2.8 µM; in assay [2] (setting [5]), 0.79 µM; in assay [3] (setting [5]), more than 1 µM.

On to `CC(=O)NC1Cc2cc(Br)c3[nH]c(=O)c(=O)[nH]c3c2C1` (stereo not shown) [Example 28, N-(5-bromo-2,3-dioxo-2,3,4,7,8,9-hexahydro-1H-cyclopenta[f]quinoxalin-8-yl)-acetamide], for which the IC50 in assay [1] (setting [4]) and in assay [2] (setting [4]) was more than 100 µM in each case.

As to `O=C(CCc1ccc(O)cc1)NC1CCc2c([N+](=O)[O-])cc3[nH]c(=O)c(=O)[nH]c3c2C1` (stereo not shown) [Example 41, 2-(6-nitro-2,3-dioxo-1,2,3,4,7,8,9,10-octahydrobenzo[f]quinoxaline-9-ylcarbamoyl)ethyl-(4-hydroxy)benzene], the IC50 in assay [3] (setting [5]) is more than 1 µM.

For the compound `O=c1[nH]c2cc([N+](=O)[O-])c3c(c2[nH]c1=O)CC(N1CCCC1)C3` (stereo not shown) [Example 104, 6-Nitro-8-pyrrolidin-1-yl-4,7,8,9-tetrahydro-1H-cyclopenta[f]quinoxaline-2,3-dione], the IC50 in assay [1] (setting [4]) was found to be 2.2 µM; in assay [2] (setting [4]) it was 1.5 µM.

With `O=C(NC1Cc2c([N+](=O)[O-])cc3[nH]c(=O)c(=O)[nH]c3c2C1)c1cccs1` (stereo not shown) [Example 54, Thiophene-2-carboxylic acid (6-nitro-2,3-dioxo-2,3,4,7,8,9-hexahydro-1H-cyclopenta[f]quinoxaline-8-yl)-amide], the results for the IC50 in assay [1] (setting [4]), in assay [2] (setting [4]) and in assay [3] (setting [4]) were 0.18 µM, 0.05 µM and 0.3 µM, respectively.

On to `O=C(NC1Cc2c([N+](=O)[O-])cc3[nH]c(=O)c(=O)[nH]c3c2C1)c1cc2ccccc2s1` (stereo not shown) [Example 65, Benzo[b]thiophene-2-carboxylic acid (6-nitro-2,3,-dioxo-2,3,4,7,8,9-hexahydro-1H-cyclopenta[f]quinoxalin-8-yl)-amide], for which the IC50 was found to be 8.1 µM in assay [1] (setting [4]) and 1.3 µM in assay [2] (setting [4]).

As for `CCN(CC)C1Cc2c([N+](=O)[O-])cc3[nH]c(=O)c(=O)[nH]c3c2C1` (stereo not shown) [Example 109, 8-Diethylamino-6-nitro-4,7,8,9,-tetrahydro-1H-cyclopenta[f]quinoxaline-2,3-dione], the IC50 amounted to 5.4 µM in assay [1] (setting [4]) and 5.1 µM in assay [2] (setting [4]).

For `CC(=O)NC1Cc2ccc3[nH]c(=O)c(=O)[nH]c3c2C1` (stereo not shown) [Example 30, N-(2,3-dioxo-2,3,4,7,8,9-hexahydro-1H-cyclopenta[f]quinoxalin-8-yl)-acetamide], the IC50 turned out to be 87 µM in assay [1] (setting [4]) and 25 µM in assay [2] (setting [4]).

On to `O=c1[nH]c2cc([N+](=O)[O-])c3c(c2[nH]c1=O)CC(N1CCCCC1)C3` (stereo not shown) [Example 108, 6-Nitro-8-piperidin-1-yl-4,7,8,9-tetrahydro-1H-cyclopenta[f]quinoxaline-2,3-dione], for which the IC50 was 1.6 µM in assay [1] (setting [4]) and 3.4 µM in assay [2] (setting [4]).

As to `NC1Cc2c([N+](=O)[O-])cc3[nH]c(=O)c(=O)[nH]c3c2C1` (stereo not shown) [Example 38, 8-amino-6-nitro-4,7,8,9-tetrahydro-1H-cyclopenta[f]quinoxaline-2,3-dione hydrochloride], the IC50 in assay [1] (setting [4]) is 2.1 µM; in assay [2] (setting [4]) it was 2.6 µM.

For `CNC1Cc2c([N+](=O)[O-])cc3[nH]c(=O)c(=O)[nH]c3c2C1` (stereo not shown) [Example 100, 8-Methylamino-6-nitro-4,7,8,9-tetrahydro-1H-cyclopenta[f]quinoxaline-2,3-dione methane sulfonate salt], the half-inhibitory concentration (IC50) in assay [1] (setting [4]) turned out to be 2.2 µM; in assay [2] (setting [4]) it was 1.2 µM.

In the case of `O=C(CN(CCO)CCO)NC1Cc2c([N+](=O)[O-])cc3[nH]c(=O)c(=O)[nH]c3c2C1` (stereo not shown) [Example 101, 2-[Bis-(2-hydroxy-ethyl)-amino]-N-(6-nitro-2,3-dioxo-2,3,4,7,8,9-hexahydro-1H-cyclopenta[f]quinoxalin-8-yl)-acetamide], the IC50 in assay [1] (setting [4]) is 1.4 µM; in assay [2] (setting [4]), 1.1 µM.

Turning to `O=c1[nH]c2cc(Br)c3c(c2[nH]c1=O)CC(OCc1ccccc1)CC3` (stereo not shown) [Example 8, 9-benzyloxy-6-bromo-1,4,7,8,9,10-hexahydro-benzo[f]quinoxaline-2,3-dione], the values for the IC50 in assay [1] (setting [5]) and in assay [2] (setting [5]) were more than 100 µM and 14 µM, respectively.

Turning to `CC(=O)NC1Cc2c([N+](=O)[O-])cc3[nH]c(=O)c(=O)[nH]c3c2C1` (stereo not shown) [Example 32, N-(6-nitro-2,3-dioxo-2,3,4,7,8,9-hexahydro-1H-cyclopenta[f]quinoxalin-8-yl)-acetamide], the IC50 was 0.9 µM in assay [1] (setting [4]), 0.4 µM in assay [2] (setting [4]) and 1.3 µM in assay [3] (setting [4]).

On to `CN(C(=O)c1cccs1)C1Cc2c([N+](=O)[O-])cc3[nH]c(=O)c(=O)[nH]c3c2C1` (stereo not shown) [Example 67, Thiophene-2-carboxylic acid methyl-(6-nitro-2,3-dioxo-2,3,4,7,8,9-hexahydro-1H-cyclopenta[f]quinoxalin-8-yl)-amide], for which the IC50 was 1.6 µM in assay [1] (setting [4]) and 3.6 µM in assay [2] (setting [4]).

As usually defined, the IC50 is the concentration that gives 50% inhibition.
